In patent US12213970B2, “Pyridinyl sulfonamide derivatives, pharmaceutical compositions and uses thereof” (Boehringer Ingelheim International GmbH, priority 2018, dated 2025):
Where a name gives a salt, the structure may show the parent alone. Read-outs that look alike come from different tables or passages of the source.

How the values were obtained:
AOC2 = molecular target: T1, AOC2 (Homo sapiens, UniProt O75106); assay: AOC2 biochemical assay (Amplex Red)
T1 construct: host or cells: HEK293 cells (transient transfection), cell homogenate
T1 sequence (O75106 1-756): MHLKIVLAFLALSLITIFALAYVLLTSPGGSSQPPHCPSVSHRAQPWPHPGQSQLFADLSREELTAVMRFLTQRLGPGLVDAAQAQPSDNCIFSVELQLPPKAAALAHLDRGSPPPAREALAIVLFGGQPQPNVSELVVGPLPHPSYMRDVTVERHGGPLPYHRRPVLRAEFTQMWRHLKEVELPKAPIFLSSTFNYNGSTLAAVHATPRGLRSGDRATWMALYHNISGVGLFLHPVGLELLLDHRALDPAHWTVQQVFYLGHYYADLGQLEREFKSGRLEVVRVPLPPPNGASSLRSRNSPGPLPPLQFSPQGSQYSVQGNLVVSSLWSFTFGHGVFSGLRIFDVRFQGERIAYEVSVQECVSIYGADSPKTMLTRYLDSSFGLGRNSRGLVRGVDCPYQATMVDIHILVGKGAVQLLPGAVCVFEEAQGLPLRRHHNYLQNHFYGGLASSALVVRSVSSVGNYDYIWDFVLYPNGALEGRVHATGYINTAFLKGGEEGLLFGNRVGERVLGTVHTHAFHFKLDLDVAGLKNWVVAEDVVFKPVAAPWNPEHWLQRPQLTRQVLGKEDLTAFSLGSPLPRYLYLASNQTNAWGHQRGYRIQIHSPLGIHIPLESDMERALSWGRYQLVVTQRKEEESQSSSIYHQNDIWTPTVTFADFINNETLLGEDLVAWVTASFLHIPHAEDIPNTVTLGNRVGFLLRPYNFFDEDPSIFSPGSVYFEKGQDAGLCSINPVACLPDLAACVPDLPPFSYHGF
Protocol: The Amplex® Red Assay (commercially available from Thermo Fisher Scientific) provides a sensitive method for the detection of H2O2 generated during enzymatic reactions like the amine oxidation catalyzed by AOC2. […] An aliquot of 5 μL of the compound dilution is added to a 96 well plate (flat bottom F, black, GREINER bio-one, #655900) in a DMSO concentration of 2%. […] Cells are cultured for 3 days in EMEM culture medium containing 10% FCS (#04-00-1A, Biological Industries). After washing twice with ice cold PBS, cells are lysed by mechanic homogenation and cleared supernatants are shock frozen in liquid nitrogen and stored at -80° C. For the determination of AOC2 enzymatic activity cell lysates are thawed on ice and 1:1 diluted with reaction buffer. An Aliquot of 45 μL is added to the compound dilution and incubated for 30 min at 37° C. The enzymatic reaction is started with the addition of 50 μL of Amplex® Red reaction mix (final assay concentration: 100 mM sodiumphosphate, 120 μM Amplex® Red reagent (#A22177 Molecular Probes), 1.5 U/mL Horseradish Peroxidase (#P8375 Sigma-Aldrich), 2 mM phenylethylamine (#[…] Sigma-Aldrich), 0.05% Pluronic F-127 (#P3000MP Sigma-Aldrich), pH 7.4, 37° C.). The turnover per time of the substrate is determined directly with a fluorescence reader (Ex 540 nm/Em 590 nm) like Envision 2104 Multilabel Reader (PERKIN ELMER) for 60 min. (cf. Anal Biochem (1997) 253:169-174; Anal Biochem (1997) 253:162-168)

MAO-A = molecular target: T2, MAO-A (Homo sapiens, UniProt P21397); assay: MAO-A biochemical assay (MAO-Glo)
T2 construct: purchased Sigma-Aldrich M7316
T2 sequence (P21397 1-527): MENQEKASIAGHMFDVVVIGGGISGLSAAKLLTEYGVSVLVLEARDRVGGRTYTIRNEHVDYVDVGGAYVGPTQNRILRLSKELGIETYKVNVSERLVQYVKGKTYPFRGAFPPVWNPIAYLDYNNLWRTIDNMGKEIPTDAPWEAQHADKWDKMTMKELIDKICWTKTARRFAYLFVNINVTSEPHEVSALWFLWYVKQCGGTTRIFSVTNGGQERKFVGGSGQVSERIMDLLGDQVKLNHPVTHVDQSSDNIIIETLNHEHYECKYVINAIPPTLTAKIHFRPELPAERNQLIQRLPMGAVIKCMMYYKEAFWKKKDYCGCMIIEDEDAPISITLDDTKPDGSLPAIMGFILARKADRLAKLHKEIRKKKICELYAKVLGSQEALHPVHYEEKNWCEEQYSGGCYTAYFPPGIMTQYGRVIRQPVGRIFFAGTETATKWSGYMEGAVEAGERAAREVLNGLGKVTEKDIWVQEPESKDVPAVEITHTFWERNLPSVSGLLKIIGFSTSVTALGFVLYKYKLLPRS
Text: The MAO-Glo™ Assay (commercially available from PROMEGA, #V1402) provides a sensitive method for the measurement of monoamine oxidase (MAO) activity (Valley, M. P. et al., 2006, Anal. Biochem. 359: 238-246) from a variety of tissues, biofluids or recombinant expressed or purified enzymes. As substrate a derivate of the beetle luciferin ((4S)-4,5-dihydro-2-(6-hydroxybenzothiazolyl)-4-thiazole-carboxylic acid) is used, which is oxidized at a primary amine moiety. After a spontaneous elimination and a catalyzed esterase reaction, the turnover of luciferin by the luciferase is recorded as a signal of MAO-A activity.
An aliquot of 3 μL of the compound dilution is added to a 384 well plate (Optiplate, PS, flat bottom F, black, PERKIN ELMER, #6007270) in a DMSO concentration of 1.025%.
A MAO-A enzyme aliquot (M7316, Sigma-Aldrich) is thawed on ice, diluted in reaction buffer to 1.25 mU/μL and added in a volume of 5 μL to the wells. After incubation for 20 minutes at 37° C., 2 μL of MAO substrate (dissolved in DMSO at 16 mM, diluted to 20 μM in assay buffer to obtain a final assay concentration of 4 μM) is added, mixed, and the mixture further incubated for 60 minutes at 37° C.
The turnover of the substrate is determined by the addition of 10 μL of the Detection Reagent mix which was generated by the addition of reconstitution buffer with esterase (PROMEGA, #V1402) to the luciferin detection reagent (PROMEGA, #V1402). After an incubation period of 20 minutes at 37° C., the luminescent signal is measured with a […], e.g. Envision 2104 Multilabel Reader (PERKIN ELMER).

[1] = comparison table, read-out: IC50 AOC2
[2] = comparison table, read-out: IC50 MAO-A

SMILES	IC50 (AOC2; read-out: AOC2 IC50) [nM]	IC50 (MAO-A; IC50, read-out: MAO-A) [nM]	IC50 (AOC2; [1]) [nM]	IC50 (MAO-A; [2]) [nM]	IC50 (AOC2; read-out: IC50 AOC2) [nM]	ratio IC50 AOC2/IC50 AOC3 (fold less active against AOC2 as compared to AOC3) (AOC2; AOC2 versus AOC3) [fold]
CCNC(=O)CC1CCN(S(=O)(=O)c2ccc(OC/C(=C\F)CN)nc2)CC1 [Example 30]	44	21400	–	–	–	–
NC/C(=C/F)COc1ccc(S(=O)(=O)N2CC[C@@H](C(N)=O)C2)cn1 [Example 31]	40	> 50000	–	–	–	–
COC(=O)CC1CCN(S(=O)(=O)c2ccc(OC/C(=C\F)CN)nc2)CC1 [Example 32]	39	38600	–	–	–	–
COC1CN(S(=O)(=O)c2ccc(OC/C(=C\F)CN)nc2)C1 [Example 33]	–	40500	55	40500	–	–
COC(=O)C1CCN(S(=O)(=O)c2ccc(OC/C(=C\F)CN)nc2)CC1 [Example 34]	78	15200	–	–	–	–
COC(=O)[C@H]1[C@@H]2CN(S(=O)(=O)c3ccc(OC/C(=C\F)CN)nc3)C[C@@H]21 [Example 35, trans-3-[6-((Z)-2-Aminomethyl-3-fluoro-allyloxy)-pyridine-3-sulfonyl]-3-aza-bicyclo[3.1.0]hexane-6-carboxylic acid methyl ester trifluoroacetate]	277	> 50000	–	–	–	–
COC(=O)C1(C)CCN(S(=O)(=O)c2ccc(OC/C(=C\F)CN)nc2)CC1 [Example 36]	3	13500	–	–	–	–
CNC(=O)C1CCN(S(=O)(=O)c2ccc(OC/C(=C\F)CN)nc2)CC1 [Example 37, trifluoroacetate]	193	> 50000	–	–	–	–
NC/C(=C/F)COc1ccc(S(=O)(=O)N2CCCCC2)cn1 [Example 38]	61	32300	–	–	–	–
NC/C(=C/F)COc1ccc(S(=O)(=O)N2CC[C@H](C(N)=O)C2)cn1 [Example 39]	56	> 50000	–	–	–	–
COC1CCN(S(=O)(=O)c2ccc(OC/C(=C\F)CN)nc2)CC1 [Example 40]	40	> 50000	–	–	–	–
CC1(O)CCN(S(=O)(=O)c2ccc(OC/C(=C\F)CN)nc2)CC1 [Example 41]	24	> 50000	–	–	–	–
NC/C(=C/F)COc1ccc(S(=O)(=O)N2CCC(O)(C(F)(F)F)CC2)cn1 [Example 42]	9	48200	–	–	–	–
NC/C(=C/F)COc1ccc(S(=O)(=O)N2CC[C@H](O)C2)cn1 [Example 43, (S)-1-[6-(Z)-2-Aminomethyl-3-fluoro-allyloxy]-pyridine-3-sulfonyl]-pyrrolidin-3-ol trifluoroacetate]	–	49100	–	49100	210	–
NC/C(=C/F)COc1ccc(S(=O)(=O)N2CCC(CC(=O)O)CC2)cn1 [Example 44, trifluoroacetate]	1	> 50000	–	–	–	–
NC/C(=C/F)COc1ccc(S(=O)(=O)N2C[C@@H]3[C@H](C2)[C@H]3C(=O)O)cn1 [Example 45, trans-3-[6-((Z)-2-Aminomethyl-3-fluoro-allyloxy)-pyridine-3-sulfonyl]-3-aza-bicyclo[3.1.0]hexane-6-carboxylic acid trifluoroacetate]	70	> 50000	–	–	–	–
NC/C(=C/F)COc1ccc(S(=O)(=O)N2CCC(C(=O)O)CC2)cn1 [Example 46]	45	> 50000	–	–	–	–
CC1(C(=O)O)CCN(S(=O)(=O)c2ccc(OC/C(=C\F)CN)nc2)CC1 [Example 47]	5	> 50000	–	–	–	–
CC1(C(=O)NC2CCOCC2)CCN(S(=O)(=O)c2ccc(OC/C(=C\F)CN)nc2)CC1 [Example 48, 1-[6-((Z)-2-Aminomethyl-3-fluoro-allyloxy)-pyridine-3-sulfonyl]-4-methyl-piperidine-4-carboxylic acid (tetrahydropyran-4-yl)-amide trifluoroacetate]	73	> 50000	–	–	–	–
CC1(C(N)=O)CCN(S(=O)(=O)c2ccc(OC/C(=C\F)CN)nc2)CC1 [Example 49]	21	> 50000	–	–	–	–
NC/C(=C/F)COc1ccc(S(=O)(=O)N2CCC(CC(N)=O)CC2)cn1 [Example 50]	16	29600	–	–	–	–
COC1CN(S(=O)(=O)c2ccc(OC/C(=C\F)CN)cc2)C1 [Reference compound A, reference compound]	–	–	156	2350	–	52
NC/C(=C/F)COc1cnc(N2CC[C@H](O)C2)nc1 [Z isomer of example 6 of WO 2018/027892, reference compound]	–	–	–	56300	2730	–
